What all share (test): inhibition of tumour cell growth, NCI panel, 48 h
Assay [1] has as its system NCI-H226 lung.
Assay [2] has as its system IGROV1 ovarian.
For assay [3], the system named is SF-295 CNS.
Assay [4] has as its system NCI-H522 lung.
Assay [5] concerns HCT-116 colon.
For assay [6], the system named is PC-3 prostate.
Assay [7] deals with MALME-3M melanoma.
The subject of assay [8] is OVCAR-4 ovarian.
For assay [9], the system named is UACC-62 melanoma.
Assay [10] deals with SF-539 CNS.

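Following 48 hours of exposure in 96-well plates, responses at five concentrations were used to interpolate endpoints linearly. GI50 = concentration required for 50% inhibition of growth. TGI: total growth inhibition.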

As for `CC(C)C[C@H](NC(=O)CCn1ccc2ccccc2c1=O)B(O)O`, the GI50 in assay [1] was 1.47 µM; in [2], 12.3 µM; in assay [3], 3.77 µM; in assay [4], 2.6 µM; in assay [5], 1.55 µM; in [6], 5.77 µM. Further, the GI50 in [7] is 2.58 µM; in assay [8] it was 17 µM; in [9], 4.29 µM; in assay [10], 1.61 µM. In addition, the TGI in assay [1] was 3.24 µM; in assay [2], more than 100 µM; in assay [3], 19.6 µM; in [4] it was 8.09 µM; in assay [5], 19.8 µM; in assay [6], more than 100 µM. The TGI in [7] was 9.89 µM; in [8] it was more than 100 µM; in assay [9], 24.9 µM; in assay [10], 5.62 µM.
As for `O=C(Nc1ccccc1OC(=O)c1ccccc1)c1ccccc1`, the GI50 in assay [1] is more than 100 µM; in [2], 2.91 µM; in assay [3], 2.47 µM; in [4], 11.2 µM; in [5] it was 3.69 µM; in [6] it was 6.11 µM. For the same compound, the GI50 is 14.5 µM in assay [7], 18.7 µM in assay [8], 64.8 µM in assay [9] and 22.8 µM in assay [10]. Besides, the TGI in assay [1] is more than 100 µM; in assay [2], 17.1 µM; in assay [3], 8.03 µM; in [4], 77.9 µM; in assay [5], more than 100 µM; in assay [6], more than 100 µM. The TGI in assay [7], in assay [8], in assay [9] and in [10] was more than 100 µM in each case.
For `Oc1cccc2c1NCCC2`, the GI50 in assay [1] is 3.07 µM; in assay [2], 0.745 µM; in assay [3], 0.139 µM; in assay [4], 0.0937 µM; in assay [5], 0.1 µM; in [6], 0.119 µM. The GI50 is 0.135 µM in assay [7], 1.65 µM in [8], 0.144 µM in [9] and 0.14 µM in [10]. The TGI in assay [1] was 35.2 µM; in assay [2] it was more than 100 µM; in assay [3], more than 22.6 µM; in assay [4], 1.75 µM; in assay [5], more than 100 µM; in [6], more than 100 µM. Besides, the TGI was 98.9 µM in assay [7], more than 100 µM in assay [8], 4.51 µM in assay [9] and more than 47.3 µM in [10].
Consider `O=Nc1c(-c2c(O)[nH]c3ncccc23)[nH]c2ccccc12`, for which the GI50 in [1] is 15.3 µM; in assay [2], 1.72 µM; in assay [3], more than 100 µM; in assay [4], more than 53.6 µM; in assay [5], 6.12 µM; in assay [6], more than 26.1 µM. Further, the GI50 in [7] was 8.83 µM; in assay [8], 9.1 µM; in assay [10] it was more than 100 µM. Also, the TGI in [1], in assay [2], in [3], in assay [4], in assay [5] and in assay [6] was more than 100 µM each time. In addition, the TGI in assay [7] was more than 41.5 µM; in assay [8], more than 100 µM; in assay [9], more than 100 µM; in assay [10], more than 100 µM.
For `COc1ccc(C(=O)/C=C/c2ccc(OCC#N)cc2)cc1`, the TGI was 88.8 µM in assay [1]; more than 10 µM in assay [2]; more than 100 µM in assay [3]; 35.6 µM in [4]; 24.6 µM in assay [5]; more than 100 µM in assay [6]. For the same compound, the TGI in assay [7] was 43.7 µM; in assay [8], more than 100 µM; in assay [9] it was more than 10 µM; in assay [10], 45.4 µM.
In the case of `C[C@@H]1Cc2cc(O)ccc2[C@H]2CC[C@]3(C)/C(=C/COCCN(C)C)CC[C@H]3[C@H]12` (tested in a mixture with another compound), the GI50 is 0.744 µM in [1]; 0.379 µM in [2]; 0.175 µM in assay [3]; 0.131 µM in [4]; 0.245 µM in [5]; 0.233 µM in [6]. Moreover, the GI50 in [7] is 0.324 µM; in assay [8] it was 0.271 µM; in assay [9] it was 0.25 µM; in [10], 0.176 µM. For the same compound, the TGI amounted to 1.97 µM in [1]; 1.21 µM in [2]; 0.474 µM in assay [3]; 0.735 µM in assay [4]; 0.78 µM in assay [5]; 1.3 µM in [6]. Besides, the TGI is 0.865 µM in assay [7], 0.771 µM in assay [8], 0.625 µM in assay [9] and 0.339 µM in assay [10].
On to `COc1cc2c(cc1F)C(c1ccccc1Cl)=Nc1c(n[nH]c1C)N2`, for which the GI50 in assay [1] was 0.532 µM; in assay [2] it was 1.54 µM; in assay [3], 0.477 µM; in [4], 0.415 µM; in assay [5] it was 0.639 µM; in [6], 12.3 µM. The GI50 in [7] was 18 µM; in assay [8] it was 5.63 µM; in [9], 0.995 µM; in assay [10], 0.389 µM. Moreover, the TGI in assay [1] was 16.3 µM; in assay [2], 18 µM; in assay [3], 15.7 µM; in assay [4], 20.9 µM; in assay [5] it was 18.4 µM; in [6] it was more than 50.1 µM. Moreover, the TGI came to 32.7 µM in [7], 28.6 µM in [8], 17.2 µM in [9] and 2.39 µM in assay [10].
For `O=C(CN1N=C(c2ccc(F)cc2)CCC1=O)Nc1nc2ccccc2s1`, the GI50 was 69.7 µM in assay [1]; 0.165 µM in assay [2]; more than 100 µM in assay [3]; 0.187 µM in assay [4]; 46.9 µM in [5]; 9.82 µM in assay [6]. For the same compound, the GI50 is 0.621 µM in assay [7], 2.14 µM in [8], 7.62 µM in assay [9] and 1.7 µM in assay [10]. Moreover, the TGI is more than 100 µM in assay [1]; 0.361 µM in assay [2]; more than 100 µM in assay [3]; 0.371 µM in [4]; more than 100 µM in assay [5]; more than 100 µM in assay [6]. The TGI in assay [7] is 1.56 µM; in assay [9] it was more than 100 µM; in assay [10] it was 3.19 µM.

For the origin of these results see PubChem BioAssay (NCI).
